Experimental data from PMC4264749, “Phlebotomy Treatment for Elimination of Perfluoroalkyl Acids in a Highly Exposed Family: A Retrospective Case-Series” (PLoS ONE, 2014).
Like-named read-outs stand apart in the source and are kept apart here.

Legend:
[1] = Serum PFAA concentrations in family members during intermittent phlebotomy (HPLC-MS/MS); format: in vivo, human; conditions: for Serum concentration before treatment: before phlebotomy
From the text: After receiving informed consent, intermittent phlebotomy was undertaken at an overall rate (Table 2) that was equal to or less than the maximum rate of what is done for routine blood donations at the Canadian Blood Services: ∼500 ccs of whole blood every 56 days. Frequency and timing of blood removal was not consistent between family members because of their personal availability, success at each time of venesection, and compliance of each participant. […] Mineral supplementation was discussed and was taken by each participant.
All serum samples were submitted to ALS Laboratories (Edmonton, AB) for quantitative analysis of PFAAs (see Supporting Information, S1 Table). Samples were extracted by solid phase extraction and concentrations of PFHxS, PFOS, and PFOA were determined using high performance liquid chromatography/tandem mass spectrometry. Formic acid (0.1 M) along with a mixture of isotopically labeled PFAAs (Wellington Laboratories, Guelph, Ontario) were added to 1.0 mL of serum. The mixture was vortexed, sonicated, and subjected to solid phase extraction. The extract was concentrated to 100 uL and an instrument performance internal standard was added along with 200 uL of 90% 20 mM aqueous acetic acid/10% methanol. Procedural blanks were run with each set of samples, and method limits of quantification (LOQ) were 0.5 ng/mL for each analyte. For the few PFAA levels that fell below this LOQ (shown as hollow circles in Figs. 1–3), LOQ/√2 (i.e. 0.35 ng/mL) was substituted for purposes of data analysis. PFHxS, PFOS, and PFOA levels in all participating family members were >LOQ throughout the intervention except for 3 PFOS measurements out of 16 total measurements in the 3rd child and one PFOA measurement out of 9 total measurements in the […]. Written informed consent was given by participants (or parents in the case of children) for their clinical records to be used in this study.

[2] = design: method as in PMID 17805419; conditions: cited from earlier work
[3] = Apparent elimination half-life (HLapp) and phlebotomy efficiency coefficient in treated family members; format: in vivo, human; conditions: family members with regular phlebotomy, except parent
From the text: To evaluate the effect of phlebotomy, versus the expected rate of intrinsic elimination, we graphically and statistically compared the observed decreasing trends in each family member (fitted to a simple exponential decay model) with reference population elimination kinetics. Specifically, for the reference population of occupationally exposed retirees, we considered: i) the 95% confidence interval of the geometric mean elimination rate for each PFAA, and ii) the fastest individual rate of elimination rate among the reference population. For comparative purposes, the concentration of each PFAA in serum on the first day of the intervention was taken as time zero, and the models were forced through this starting point.
One metric that was calculated to compare the efficiency of the phlebotomy for removal of different PFAAs in each family member was termed the phlebotomy efficiency coefficient (EC). This was based on the subtractive difference between HLapp (yrs) in each treated family member and the geometric mean HLin (yrs) of the reference population according to Equation 1 . [drawing 1] (1)

[4] = design: method as in PMID 23980546; conditions: urinary excretion, China, cited from earlier work
[5] = design: method as in earlier work; conditions: cited from earlier work

O=C(O)C(F)(F)C(F)(F)C(F)(F)C(F)(F)C(F)(F)C(F)(F)C(F)(F)F [PFOA, perfluorooctanoic acid]
Serum concentration before treatment ([1]; 1st Child): 4.7 ng/mL | Serum concentration ([1]; 1st Child, sampling date 2009.10.12): 3.5 ng/mL | Serum concentration ([1]; 1st Child, sampling date 2009.12.24): 4.4 ng/mL | Serum concentration ([1]; 1st Child, sampling date 2009.6.9): 4.7 ng/mL | Serum concentration ([1]; 1st Child, sampling date 2009.9.9): 3.9 ng/mL | Serum concentration ([1]; 1st Child, sampling date 2010.10.14): 2.8 ng/mL | Serum concentration ([1]; 1st Child, sampling date 2010.1.17): 4.0 ng/mL | Serum concentration ([1]; 1st Child, sampling date 2010.2.11): 2.0 ng/mL | Serum concentration ([1]; 1st Child, sampling date 2010.4.14): 3.8 ng/mL | Serum concentration ([1]; 1st Child, sampling date 2011.12.5): 1.3 ng/mL | Serum concentration ([1]; 1st Child, sampling date 2011.5.17, LOD=0.5ng/mL): 1.8 ng/mL | Serum concentration ([1]; 1st Child, sampling date 2011.8.12, LOD=0.5ng/mL): 2.7 ng/mL | Serum concentration ([1]; 1st Child, sampling date 2012.12.28, LOD=0.5ng/mL): 1.5 ng/mL | Serum concentration ([1]; 1st Child, sampling date 2012.4.24): 2.3 ng/mL | Serum concentration ([1]; 1st Child, sampling date 2012.8.21): 1.7 ng/mL | Serum concentration ([1]; 1st Child, sampling date 2013.3.30): 1.5 ng/mL | Serum concentration ([1]; 1st Child, sampling date 2013.7.30): 1.2 ng/mL | Serum concentration before treatment ([1]; 2nd Child): 8.7 ng/mL | Serum concentration ([1]; 2nd Child, sampling date 2009.10.24): 5.0 ng/mL | Serum concentration ([1]; 2nd Child, sampling date 2009.6.6): 8.7 ng/mL | Serum concentration ([1]; 2nd Child, sampling date 2009.7.2): 7.1 ng/mL | Serum concentration ([1]; 2nd Child, sampling date 2009.7.30): 9.2 ng/mL | Serum concentration ([1]; 2nd Child, sampling date 2009.8.24): 7.4 ng/mL | Serum concentration ([1]; 2nd Child, sampling date 2009.9.27): 4.5 ng/mL | Serum concentration ([1]; 2nd Child, sampling date 2010.1.3): 4.3 ng/mL | Serum concentration ([1]; 2nd Child, sampling date 2010.2.15): 4.9 ng/mL | Serum concentration ([1]; 2nd Child, sampling date 2011.10.2): 3.7 ng/mL | Serum concentration ([1]; 2nd Child, sampling date 2011.12.24): 3.8 ng/mL | Serum concentration ([1]; 2nd Child, sampling date 2011.4.27): 3.7 ng/mL | Serum concentration ([1]; 2nd Child, sampling date 2011.8.14): 3.6 ng/mL | Serum concentration ([1]; 2nd Child, sampling date 2012.12.24): 3.0 ng/mL | Serum concentration ([1]; 2nd Child, sampling date 2012.4.6): 3.0 ng/mL | Serum concentration ([1]; 2nd Child, sampling date 2013.5.11.): 2.1 ng/mL | Serum concentration ([1]; 2nd Child, sampling date 2013.7.15): 1.9 ng/mL | Serum concentration before treatment ([1]; 3rd Child): 8.2 ng/mL | Serum concentration ([1]; 3rd Child, sampling date 2010.3.12): 6.6 ng/mL | Serum concentration ([1]; 3rd Child, sampling date 2010.5.23): 5.3 ng/mL | Serum concentration ([1]; 3rd Child, sampling date 2011.1.6): 4.2 ng/mL | Serum concentration ([1]; 3rd Child, sampling date 2011.11.26): 2.2 ng/mL | Serum concentration ([1]; 3rd Child, sampling date 2011.2.24): 3.3 ng/mL | Serum concentration ([1]; 3rd Child, sampling date 2011.4.30): 3.0 ng/mL | Serum concentration ([1]; 3rd Child, sampling date 2011.6.13): 3.2 ng/mL | Serum concentration ([1]; 3rd Child, sampling date 2011.9.27): 3.0 ng/mL | Serum concentration ([1]; 3rd Child, sampling date 2012.10.16): 2.1 ng/mL | Serum concentration ([1]; 3rd Child, sampling date 2012.1.8): 2.9 ng/mL | Serum concentration ([1]; 3rd Child, sampling date 2012.12.9): 2.5 ng/mL | Serum concentration ([1]; 3rd Child, sampling date 2012.3.4): 3.2 ng/mL | Serum concentration ([1]; 3rd Child, sampling date 2012.4.28): 3.2 ng/mL | Serum concentration ([1]; 3rd Child, sampling date 2013.2.5): 2.2 ng/mL | Serum concentration ([1]; 3rd Child, sampling date 2013.3.30): 2.2 ng/mL | Serum concentration before treatment ([1]; 4th Child): 6.8 ng/mL | Serum concentration before treatment ([1]; Average of 6 family members): 5.7 ng/mL | Serum concentration before treatment ([1]; Parent one): 3.0 ng/mL | Serum concentration ([1]; Parent one, sampling date 2009.10.11): 1.6 ng/mL | Serum concentration ([1]; Parent one, sampling date 2009.10.12): 2.1 ng/mL | Serum concentration ([1]; Parent one, sampling date 2009.11.12): 2.0 ng/mL | Serum concentration ([1]; Parent one, sampling date 2009.12.14): 2.1 ng/mL | Serum concentration ([1]; Parent one, sampling date 2009.2.2): 3.0 ng/mL | Serum concentration ([1]; Parent one, sampling date 2009.5.18): 2.5 ng/mL | Serum concentration ([1]; Parent one, sampling date 2009.6.1): 3.1 ng/mL | Serum concentration ([1]; Parent one, sampling date 2009.7.4): 2.6 ng/mL | Serum concentration ([1]; Parent one, sampling date 2009.9.1): 2.3 ng/mL | Serum concentration ([1]; Parent one, sampling date 2010.10.10): 2.2 ng/mL | Serum concentration ([1]; Parent one, sampling date 2010.1.17): 2.0 ng/mL | Serum concentration ([1]; Parent one, sampling date 2010.3.13): 2.6 ng/mL | Serum concentration ([1]; Parent one, sampling date 2011.1.6): 1.6 ng/mL | Serum concentration ([1]; Parent one, sampling date 2011.11.26): 0.9 ng/mL | Serum concentration ([1]; Parent one, sampling date 2011.2.24): 1.7 ng/mL | Serum concentration ([1]; Parent one, sampling date 2011.4.30): 1.3 ng/mL | Serum concentration ([1]; Parent one, sampling date 2011.6.22): 1.5 ng/mL | Serum concentration ([1]; Parent one, sampling date 2011.8.4): 1.4 ng/mL | Serum concentration ([1]; Parent one, sampling date 2011.9.27): 1.2 ng/mL | Serum concentration ([1]; Parent one, sampling date 2012..12.28): 1.0 ng/mL | Serum concentration ([1]; Parent one, sampling date 2012.1.14): 1.6 ng/mL | Serum concentration ([1]; Parent one, sampling date 2012.11.1): 1.2 ng/mL | Serum concentration ([1]; Parent one, sampling date 2012.3.4): 1.3 ng/mL | Serum concentration ([1]; Parent one, sampling date 2012.4.29): 1.2 ng/mL | Serum concentration ([1]; Parent one, sampling date 2012.7.8): 1.0 ng/mL | Serum concentration ([1]; Parent one, sampling date 2012.8.21): 1.2 ng/mL | Serum concentration ([1]; Parent one, sampling date 2013.10.27): 1.2 ng/mL | Serum concentration ([1]; Parent one, sampling date 2013.2.18): 1.2 ng/mL | Serum concentration ([1]; Parent one, sampling date 2013.3.30): 1.1 ng/mL | Serum concentration ([1]; Parent one, sampling date 2013.5.11): 1.0 ng/mL | Serum concentration ([1]; Parent one, sampling date 2013.7.15): 1.0 ng/mL | Serum concentration ([1]; Parent one, sampling date 2013.9.8): 0.9 ng/mL | Serum concentration before treatment ([1]; Parent two): 2.5 ng/mL | Serum concentration ([1]; Parent two, sampling date 2009.6.1): 2.5 ng/mL | Serum concentration ([1]; Parent two, sampling date 2009.7.7): 1.8 ng/mL | Serum concentration ([1]; Parent two, sampling date 2009.8.24): 1.6 ng/mL | Serum concentration ([1]; Parent two, sampling date 2010.1.3): 1.3 ng/mL | Serum concentration ([1]; Parent two, sampling date 2012.3.13): 1.3 ng/mL | Serum concentration ([1]; Parent two, sampling date 2013.1.1): 1.0 ng/mL | Serum concentration ([1]; Parent two, sampling date 2013.10.6): 0.9 ng/mL | Serum concentration ([1]; Parent two, sampling date 2013.6.22): 1.1 ng/mL | HLin of fastest eliminator in the reference population ([2]; reference population of occupationally exposed retirees (26 individuals)): 1.5 yrs | 95% confidence interval of the geometric mean HLin ([2]; reference population of occupationally exposed retirees): 3.0–4.1 yrs | HLin, 95% confidence interval ([2]; serum, retirees >55 yrs, previously occupationally exposed): 3.1–4.4 yrs | HLapp compared with geometric mean HLin of reference population [3]: significantly shorter | HLapp ([4]; males and post-menopausal females): 2.6 years | HLapp ([4]; reproductive-aged females): 2.1 years | 95th percentile of serum concentration among Canadians ([5]; 2009–2011): 5 ng/mL | median serum concentration among Canadians [5]: 2.7 ng/mL
